Drawing on patent US20080234262A1 (Wyeth, priority 2007, published 2008), this text covers IC50 for 24 molecules.

The test system of one assay is breast line MDA468. In words: In vitro cell culture growth assay (MTS), MDA468. The class given is cell-based, human. As to conditions: MDA468 cells, three days after drug treatment. In a few lines:
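Cells were plated and, one day later, exposed to inhibitors for three days; viable cell density was then measured by metabolic conversion of MTS dye, read as absorbance at 490 nm. Growth is expressed as percent of vehicle-treated control cells on the same plate.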

Another assay concerns the target PI3K (Homo sapiens, UniProt P42336). Put plainly: Fluorescence polarization assay for PI3K.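 Further: PI3K kinase reaction on PIP2 with ATP, 30-60 min, product sensed by GST-GRP with red probe in fluorescence polarization (mP), controls without enzyme and at zero time.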 In kind it is biochemical. As to conditions: PI3Kα; read-out: PI3Kα IC50. For orientation: Polarisation of emitted light reports the rotation of a fluorescent probe.
A further assay relates to prostate line LNCap. Put plainly: In vitro cell culture growth assay (MTS), LNCap. As to conditions: LNCap cells, three days after drug treatment. The class given is cell-based, human.

SMILES strings stand for the structures.

PI3K, sequence (P42336 whole entry): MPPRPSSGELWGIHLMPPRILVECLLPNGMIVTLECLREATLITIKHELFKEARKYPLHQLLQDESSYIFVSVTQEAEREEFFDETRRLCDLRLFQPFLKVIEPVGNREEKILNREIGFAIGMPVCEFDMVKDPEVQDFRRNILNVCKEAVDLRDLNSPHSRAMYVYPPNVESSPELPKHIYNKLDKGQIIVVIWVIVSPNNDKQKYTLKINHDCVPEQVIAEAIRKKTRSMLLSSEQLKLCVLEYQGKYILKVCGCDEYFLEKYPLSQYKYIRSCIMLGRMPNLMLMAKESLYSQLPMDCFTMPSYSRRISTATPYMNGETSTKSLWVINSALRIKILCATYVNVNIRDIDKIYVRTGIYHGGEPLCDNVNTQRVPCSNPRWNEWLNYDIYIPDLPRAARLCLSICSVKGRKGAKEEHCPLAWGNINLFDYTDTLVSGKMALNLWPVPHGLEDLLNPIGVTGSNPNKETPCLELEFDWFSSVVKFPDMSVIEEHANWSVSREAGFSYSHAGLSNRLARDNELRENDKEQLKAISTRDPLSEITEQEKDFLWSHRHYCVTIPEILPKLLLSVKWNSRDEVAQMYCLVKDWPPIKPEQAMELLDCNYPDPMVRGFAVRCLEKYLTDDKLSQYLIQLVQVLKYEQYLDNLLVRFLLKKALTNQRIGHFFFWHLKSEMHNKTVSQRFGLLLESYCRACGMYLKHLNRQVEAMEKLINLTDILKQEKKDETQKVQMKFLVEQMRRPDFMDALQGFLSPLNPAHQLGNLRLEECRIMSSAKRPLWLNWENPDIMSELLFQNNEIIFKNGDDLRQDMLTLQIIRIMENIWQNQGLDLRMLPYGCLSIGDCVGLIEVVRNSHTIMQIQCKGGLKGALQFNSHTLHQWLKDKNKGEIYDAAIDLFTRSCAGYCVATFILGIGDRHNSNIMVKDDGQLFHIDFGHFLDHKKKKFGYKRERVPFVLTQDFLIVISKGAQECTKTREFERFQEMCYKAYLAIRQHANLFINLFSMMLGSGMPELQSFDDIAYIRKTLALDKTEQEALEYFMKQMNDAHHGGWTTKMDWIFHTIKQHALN
PI3K, sequence (P27986 whole entry partner): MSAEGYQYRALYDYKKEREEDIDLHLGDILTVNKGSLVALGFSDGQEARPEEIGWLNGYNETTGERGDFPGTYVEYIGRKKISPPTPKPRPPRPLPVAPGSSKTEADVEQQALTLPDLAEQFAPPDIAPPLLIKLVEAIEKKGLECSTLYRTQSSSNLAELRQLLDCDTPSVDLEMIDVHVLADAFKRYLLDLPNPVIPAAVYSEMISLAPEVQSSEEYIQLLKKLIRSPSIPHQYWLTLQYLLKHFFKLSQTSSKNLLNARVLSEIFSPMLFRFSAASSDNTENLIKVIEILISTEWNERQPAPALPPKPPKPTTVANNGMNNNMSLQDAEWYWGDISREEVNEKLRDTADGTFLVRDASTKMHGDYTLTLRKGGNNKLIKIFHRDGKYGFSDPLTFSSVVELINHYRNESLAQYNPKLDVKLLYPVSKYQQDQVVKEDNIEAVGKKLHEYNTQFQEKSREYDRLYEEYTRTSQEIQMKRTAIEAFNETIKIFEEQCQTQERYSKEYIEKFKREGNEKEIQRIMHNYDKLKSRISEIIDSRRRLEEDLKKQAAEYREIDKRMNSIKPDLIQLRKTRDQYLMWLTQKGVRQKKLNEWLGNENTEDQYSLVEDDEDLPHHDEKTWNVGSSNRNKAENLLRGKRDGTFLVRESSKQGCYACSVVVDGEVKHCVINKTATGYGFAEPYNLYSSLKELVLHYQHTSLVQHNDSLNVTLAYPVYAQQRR

`CNC(=O)Nc1ccc(-c2nc(N3CCOCC3)c3cnn(C4CCN(Cc5cccnc5)CC4)c3n2)cc1Cl` [Compound 730, 1-(2-chloro-4-{4-morpholin-4-yl-1-[1-(pyridin-3-ylmethyl)piperidin-4-yl]-1H-pyrazolo[3,4-d]pyrimidin-6-yl}phenyl)-3-methylurea]: the concentration for half-maximal inhibition (IC50) (as a rule, the concentration needed to halve the response being measured) with breast line MDA468 (Homo sapiens, 72 h) worked out at 1800 nM; at PI3K, 364 nM; with prostate line LNCap (Homo sapiens, LNCaP, 72 h), 420 nM.

On to `CCOC(=O)N1CCC(n2ncc3c(N4CCOCC4)nc(-c4ccc(NC(=O)Nc5ccccn5)cc4)nc32)CC1` [Compound 815, ethyl 4-(4-morpholin-4-yl-6-{4-[(pyridin-2-ylcarbamoyl)amino]phenyl}-1H-pyrazolo[3,4-d]pyrimidin-1-yl)piperidine-1-carboxylate], for which the IC50 with breast line MDA468 (Homo sapiens, 72 h) worked out at 5000 nM; on PI3K, 3810 nM; in the assay with prostate line LNCap (Homo sapiens, LNCaP, 72 h) it was 1500 nM.

Turning to `CNC(=O)Nc1ccc(-c2nc(N3CCOCC3)c3cnn(C4CCN(C(=O)c5cccc(C(F)(F)F)c5)CC4)c3n2)cc1` [Compound 605, 1-methyl-3-[4-(4-morpholin-4-yl-1-{1-[3-(trifluoromethyl)benzoyl]piperidin-4-yl}-1H-pyrazolo[3,4-d]pyrimidin-6-yl)phenyl]urea], the IC50 in the assay on breast line MDA468 (Homo sapiens, 72 h) worked out at 160 nM; on PI3K it was 76 nM; in the assay with prostate line LNCap (Homo sapiens, LNCaP, 72 h), 45 nM.

With `C[C@H]1COCCN1c1nc(-c2cccc(O)c2)nc2c1cnn2-c1ccccc1` [Compound 726, 3-{4-[(3S)-3-methylmorpholin-4-yl]-1-phenyl-1H-pyrazolo[3,4-d]pyrimidin-6-yl}phenol], the half-maximal inhibitory concentration (IC50) with breast line MDA468 (Homo sapiens, 72 h) came out at 8000 nM; at PI3K, 98 nM; with prostate line LNCap (Homo sapiens, LNCaP, 72 h), 2700 nM.

`COC(=O)Nc1ccc(-c2nc(N3CCOCC3)c3cnn(C4CCN(C(=O)C(F)(F)F)CC4)c3n2)cc1` [Compound 811, methyl (4-{4-morpholin-4-yl-1-[1-(trifluoroacetyl)piperidin-4-yl]-1H-pyrazolo[3,4-d]pyrimidin-6-yl}phenyl)carbamate]: the IC50 in the assay on breast line MDA468 (Homo sapiens, 72 h) stood at 4600 nM; on PI3K it was 1350 nM; in the assay on prostate line LNCap (Homo sapiens, LNCaP, 72 h) it was 1900 nM.

For the molecule `c1ccc(-n2ncc3c(N4CCOCC4)nc(-c4ccc5sccc5c4)nc32)cc1` [Compound 105], the IC50 was found to be 60000 nM in the assay on breast line MDA468 (Homo sapiens, 72 h); 3080 nM at PI3K; 60000 nM in the assay with prostate line LNCap (Homo sapiens, LNCaP, 72 h).

In the case of `COC(=O)N1CCC(n2ncc3c(N4CCOCC4)nc(-c4ccc5[nH]ccc5c4)nc32)CC1` [Example 244, methyl 4-[6-(1H-indol-5-yl)-4-morpholin-4-yl-1H-pyrazolo[3,4-d]pyrimidin-1-yl]piperidine-1-carboxylate], the half-maximal inhibitory concentration (IC50) was found to be 2100 nM with breast line MDA468 (Homo sapiens, 72 h); 3300 nM at PI3K; 750 nM in the assay on prostate line LNCap (Homo sapiens, LNCaP, 72 h).

Regarding `O=C(Nc1ccncc1)Nc1ccc(-c2nc(N3CCOCC3)c3cnn(C4CCN(Cc5cccnc5)CC4)c3n2)cc1` [Example 340, 1-(4-{4-morpholin-4-yl-1-[1-(pyridin-3-ylmethyl)piperidin-4-yl]-1H-pyrazolo[3,4-d]pyrimidin-6-yl}phenyl)-3-pyridin-4-ylurea], the concentration for half-maximal inhibition (IC50) in the assay on breast line MDA468 (Homo sapiens, 72 h) was found to be 100 nM; at PI3K it was 13 nM; with prostate line LNCap (Homo sapiens, LNCaP, 72 h) it was 28 nM.

With `CCCCNC(=O)Nc1ccc(-c2nc(N3CCOCC3)c3cnn(C4CCN(Cc5cccnc5)CC4)c3n2)cc1` [Example 212, 1-Butyl-3-(4-{4-morpholin-4-yl-1-[1-(pyridin-3-ylmethyl)piperidin-4-yl]-1H-pyrazolo[3,4-d]pyrimidin-6-yl}phenyl)urea], the IC50 stood at 1400 nM in the assay with breast line MDA468 (Homo sapiens, 72 h); 106 nM on PI3K; 370 nM in the assay on prostate line LNCap (Homo sapiens, LNCaP, 72 h).

For `O=C(Nc1ccncc1)Nc1ccc(-c2nc(N3CCOCC3)c3cnn(C4CCN(C(=O)c5ccccc5)CC4)c3n2)cc1` [Compound 629, 1-{4-[1-(1-benzoylpiperidin-4-yl)-4-morpholin-4-yl-1H-pyrazolo[3,4-d]pyrimidin-6-yl]phenyl}-3-pyridin-4-ylurea], the IC50 in the assay on breast line MDA468 was found to be 70 nM; on PI3K, 19 nM; in the assay on prostate line LNCap, 42 nM.

In the case of `CNC(=O)Nc1ccc(-c2nc(N3CCOCC3)c3cnn(C4CCN(C(=O)c5cnccn5)CC4)c3n2)cc1` [Example 422, 1-methyl-3-(4-{4-morpholin-4-yl-1-[1-(pyrazin-2-ylcarbonyl)piperidin-4-yl]-1H-pyrazolo[3,4-d]pyrimidin-6-yl}phenyl)urea], the IC50 with breast line MDA468 (Homo sapiens, 72 h) turned out to be 400 nM; at PI3K, 198 nM; in the assay on prostate line LNCap (Homo sapiens, LNCaP, 72 h) it was 320 nM.

Turning to `NC(=O)Nc1ccc(-c2nc(N3CCOCC3)c3cnn(C4CCN(C(=O)c5ccccc5)CC4)c3n2)cc1` [Example 382, 1-{4-[1-(1-benzoylpiperidin-4-yl)-4-morpholin-4-yl-1H-pyrazolo[3,4-d]pyrimidin-6-yl]phenyl}urea], the half-inhibitory concentration (IC50) is 200 nM in the assay with breast line MDA468 (Homo sapiens, 72 h); 85 nM at PI3K; 170 nM in the assay with prostate line LNCap (Homo sapiens, LNCaP, 72 h).

As for `CCCOC(=O)N1CCC(n2ncc3c(N4CCOCC4)nc(-c4ccc(NC(=O)Nc5ccncc5)cc4)nc32)CC1` [Compound 851, propyl 4-(4-morpholin-4-yl-6-{4-[(pyridin-4-ylcarbamoyl)amino]phenyl}-1H-pyrazolo[3,4-d]pyrimidin-1-yl)piperidine-1-carboxylate], the IC50 in the assay with breast line MDA468 (Homo sapiens, 72 h) is 110 nM; at PI3K, 22 nM; with prostate line LNCap (Homo sapiens, LNCaP, 72 h) it was less than 27 nM.

`CCOC(=O)N1CCC(n2ncc3c(N4CCOC[C@H]4C)nc(-c4ccc(NC(=O)Nc5ccncc5)cc4)nc32)CC1` [Compound 893, ethyl 4-(4-[(3R)-3-methylmorpholin-4-yl]-6-{4-[(pyridin-4-ylcarbamoyl)amino]phenyl}-1H-pyrazolo[3,4-d]pyrimidin-1-yl)piperidine-1-carboxylate]: the IC50 worked out at 180 nM in the assay with breast line MDA468 (Homo sapiens, 72 h); 517 nM on PI3K; 5 nM with prostate line LNCap (Homo sapiens, LNCaP, 72 h).

With `CNC(=O)Nc1ccc(-c2nc(N3CCOCC3)c3cnn(C4CCN(Cc5cccc(C)c5)CC4)c3n2)cc1` [Compound 674, 1-methyl-3-(4-{1-[1-(3-methylbenzyl)piperidin-4-yl]-4-morpholin-4-yl-1H-pyrazolo[3,4-d]pyrimidin-6-yl}phenyl)urea], the figures for the IC50 in the assay with breast line MDA468, at PI3K and with prostate line LNCap were 190 nM, 42 nM and 52 nM, respectively.

Turning to `CC(C)OC(=O)N1CCC(n2ncc3c(N4CCOCC4)nc(-c4ccc(NC(=O)Nc5ccncc5)cc4)nc32)CC1` [Compound 839, isopropyl 4-(4-morpholin-4-yl-6-{4-[(pyridin-4-ylcarbamoyl)amino]phenyl}-1H-pyrazolo[3,4-d]pyrimidin-1-yl)piperidine-1-carboxylate], the 50% inhibitory concentration (IC50) with breast line MDA468 (Homo sapiens, 72 h) was determined as 68 nM; on PI3K, 37 nM; in the assay on prostate line LNCap (Homo sapiens, LNCaP, 72 h), 27 nM.

Take `CCNC(=O)Nc1ccc(-c2nc(N3CCOCC3)c3cnn(C4CCN(C(=O)OCC)CC4)c3n2)cc1` [Compound 820, ethyl 4-(6-{4-[(ethylcarbamoyl)amino]phenyl}-4-morpholin-4-yl-1H-pyrazolo[3,4-d]pyrimidin-1-yl)piperidine-1-carboxylate]: the IC50 is 130 nM in the assay with breast line MDA468 (Homo sapiens, 72 h); 704 nM at PI3K; less than 27 nM with prostate line LNCap (Homo sapiens, LNCaP, 72 h).

Regarding `O=C(Nc1ccncc1)Nc1ccc(-c2nc(N3CCOCC3)c3cnn(C4CCNCC4)c3n2)cc1` [Compound 780, 1-[4-(4-morpholin-4-yl-1-piperidin-4-yl-1H-pyrazolo[3,4-d]pyrimidin-6-yl)phenyl]-3-pyridin-4-ylurea], the IC50 was 1500 nM with breast line MDA468 (Homo sapiens, 72 h); 16 nM at PI3K; 2200 nM with prostate line LNCap (Homo sapiens, LNCaP, 72 h).

Consider `CNC(=O)Nc1ccc(-c2nc(N3CCOCC3)c3cnn([C@@H]4CCCN(C(=O)OC(C)(C)C)C4)c3n2)cc1` [Compound 874, tert-butyl (3R)-3-(6-{4-[(methylcarbamoyl)amino]phenyl}-4-morpholin-4-yl-1H-pyrazolo[3,4-d]pyrimidin-1-yl)piperidine-1-carboxylate], for which the IC50 in the assay on breast line MDA468 (Homo sapiens, 72 h) was determined as 1100 nM; at PI3K, 294 nM; with prostate line LNCap (Homo sapiens, LNCaP, 72 h) it was 400 nM.

As to `O=C(NCCF)Nc1ccc(-c2nc(N3CCOCC3)c3cnn(-c4ccccc4)c3n2)cc1` [Compound 540, 1-(2-fluoroethyl)-3-[4-(4-morpholin-4-yl-1-phenyl-1H-pyrazolo[3,4-d]pyrimidin-6-yl)phenyl]urea], the 50% inhibitory concentration (IC50) was found to be 900 nM with breast line MDA468 (Homo sapiens, 72 h); 250 nM on PI3K; 190 nM in the assay on prostate line LNCap (Homo sapiens, LNCaP, 72 h).

Regarding `COc1ccc(CN2CCC(n3ncc4c(N5CCOCC5)nc(-c5ccc6[nH]ccc6c5)nc43)CC2)cn1` [Compound 176], the IC50 in the assay with breast line MDA468 (Homo sapiens, 72 h) is 2600 nM; at PI3K, 352 nM; in the assay with prostate line LNCap (Homo sapiens, LNCaP, 72 h) it was 1000 nM.

Take `CN(C)CC(=O)Nc1ccc(-c2nc(N3CCOCC3)c3cnn(C4CCCCO4)c3n2)cc1` (stereo not drawn) [Compound 521, N2,N2-dimethyl-N-{4-[4-morpholin-4-yl-1-(tetrahydro-2H-pyran-2-yl)-1H-pyrazolo[3,4-d]pyrimidin-6-yl]phenyl}glycinamide]: the half-maximal inhibitory concentration (IC50) is 40000 nM in the assay on breast line MDA468 (Homo sapiens, 72 h); 9000 nM at PI3K; 12000 nM in the assay with prostate line LNCap (Homo sapiens, LNCaP, 72 h).

As for `CONC(=O)Nc1ccc(-c2nc(N3CCOCC3)c3cnn(-c4ccccc4)c3n2)cc1` [Compound 541, 1-methoxy-3-[4-(4-morpholin-4-yl-1-phenyl-1H-pyrazolo[3,4-d]pyrimidin-6-yl)phenyl]urea], the IC50 turned out to be 5000 nM in the assay with breast line MDA468 (Homo sapiens, 72 h); 404 nM at PI3K; 1800 nM in the assay on prostate line LNCap (Homo sapiens, LNCaP, 72 h).

For the molecule `CCCOC(=O)N1CCC(n2ncc3c(N4CCOCC4)nc(-c4ccc(NC(=O)NCCO)cc4)nc32)CC1` [Compound 855, propyl 4-[6-(4-{[(2-hydroxyethyl)carbamoyl]amino}phenyl)-4-morpholin-4-yl-1H-pyrazolo[3,4-d]pyrimidin-1-yl]piperidine-1-carboxylate], the IC50 is 330 nM with breast line MDA468 (Homo sapiens, 72 h); 186 nM on PI3K; 430 nM with prostate line LNCap (Homo sapiens, LNCaP, 72 h).
